Values belong to the molecule of their own block, whether it stands above or below them.
How the values were obtained:
[1] = Solubility in organic solvents; assay type: physicochemical; conditions: methanol, ethanol, dichloromethane, ethyl acetate, acetonitrile, acetone, chloroform
[2] = Plasma stability in rat plasma (first experiment); assay type: in vitro ADME
Experimental: (§1) A 10 μl of MeOH was added to improve solubility. […] The supernatant fractions were analyzed by LC/MS/MS. […] Percent loss of substrate in incubations was determined to estimate the in vitro half life of the test compound. Samples were analyzed on a UPLC (Waters) interfaced with a Premiere XE Triple Quadrupole (Waters).

[3] = Plasma stability in human plasma (first experiment); assay type: in vitro ADME
Experimental: as §1

[4] = HPLC retest of stored compound A samples; assay type: physicochemical; conditions: for HPLC purity: room temperature, natural light
[5] = Plasma stability in rabbit plasma (first experiment); assay type: in vitro ADME
Experimental: as §1

[6] = Stability study of compound A under storage conditions (HPLC); assay type: physicochemical
[7] = test system: recombinant protein antigens from Plasmodium falciparum and Mycobacterium ulcerans; test: Pilot immunization study with adjuvanted protein antigens in mice; assay type: in vivo; conditions: three s.c. immunizations with 10 nMol adjuvant
Experimental: A pilot immunization study was conducted using Compound A and SC12 adjuvanted protein antigens. The immunization experiments were performed with two recombinant proteins expressed in E. coli. One antigen was derived from the malaria parasite Plasmodium falciparum and the other one from Mycobacterium ulcerans, which cause the ulcerative skin disease Buruli ulcer.

[8] = Plasma stability in minipig plasma (first experiment); assay type: in vitro ADME
Experimental: as §1

human whole blood = test: Cytokine secretion in human whole blood assay (ELISA); assay type: cell-based; conditions: for IL-12p40 levels: all donors
Experimental: Before drawing the blood, the compounds were added to 96 well round bottom plates in a 10× diluted sample at 20 ul. The compounds were diluted in RPMI media without serum but with antibiotics. Antibiotics were added at a 10× concentration. After drawing the blood, the whole blood sample was gently mixed to obtain a homogeneous sample, and 180 ul was added to each well.
All compounds were setup in concentrations at 0-0.01-0.03-0.1-0.5-2.0-10.0 micromolar as the final concentration. Vehicle control was DMSO control, where we used the highest concentration used for the compounds. After addition of blood, all plates were gently agitated at 37° C. and 5% CO2 until harvest.
Concentrations of cytokines were determined by ELISA from R&D Systems. The results were analyzed in Graph Pad Prism in order to prepare dose-response curves, and for determination of EC50 values. FACS analysis was made by using Becton-Dickinson FACSDiva software and subsequently illustrated in Graph Pad Prism.

HLA-DR+/CD20+ B cells = test: FACS analysis of B cell activation in whole blood; assay type: cell-based, human; conditions: 24 hours; 2 and 10 uM; three donors
[9] = test system: 73 primary molecular targets (human recombinant receptor types and subtypes or membrane fraction from rodent tissue homogenates); test: Radioligand binding assay among 73 primary molecular targets; conditions: SC12 at 30 microM
[10] = test system: AY-27 rat bladder cancer cell-line
[11] = Serum exposure after intravesical chronic treatment in mouse
Experimental: Serum samples were taken at time points: day 0, 2 hours, day 1, 24 hours, and day 6, 2 hours.
Samples were evaporated and re-suspended in 70 microliters of acetonitrile/methanol 1:1.

PBMCs = test: IL-6 and TNF-alpha secretion in PBMCs (ELISA), Model 2; assay type: cell-based, human; conditions: three donors
[12] = test system: HLA-DR+/CD11c+/CD123- mDCs; test: FACS analysis of myeloid DC activation in whole blood; assay type: cell-based, human; conditions: 24 hours; 0.1 and 0.5 uM; three donors
Experimental: The FACS analysis for donor 1 and donor 2 was made on another day than donor 3. The compound concentrations were as follows:
The FACS analysis was used to identify whether the test compounds could induce activation of B cells, and two different subsets of dendritic cells, namely the myeloid CD11c+/CD123− DCs and the plasmacytoid CD11c−/CD123+ DCs. The following markers were studied to identify the activation status of the different subsets:
The FACS staining was performed according to the manufacturer's instructions. Lysis of red blood cells was performed before FACS staining in order to minimize auto-florescence. To include as many B cells and DCs in the study as possible the FACS analyses were performed on 500,000 cells in total for each staining. A P1 gate was set only to include relevant cells on FSC vs. SSC (see FIGS. 12-15). The results of the individual analysis were present as Mean Fluorescence Intensity
The analysis of myeloid DCs was based on HLA-DR+/CD11c+/CD123−cells, thus all analyzed cells was included in the HLA-DR+ (P3) gate and CD11c+/CD123− (Q4) gate (see gates in FIGS. 13-15).

[13] = test system: Cutaneous Squamous Cell Carcinoma (SCC) cell lines SCL-I, SCL-II, SCC-12, SCC-13; test: Proapoptotic and cytotoxic effects on cutaneous SCC cell lines (real-time cell analysis, microscopy); assay type: cell-based, human; conditions: cutaneous SCC cell lines
Experimental: SCC cells are grown under standard conditions (10% FBS).
Time and dose dependency of effects on total cell numbers have been investigated by real-time cell analysis, which is based on continuous monitoring of electric conductance in microtiter wells (E-plates, Roche), which corresponds to the cell numbers. […] For these assays 4 cell lines should be used to obtain a representative overview on the effects on SCC cells.

human PBMCs = test: IL-6 secretion in human PBMCs, two batches of Compound A and SC12; assay type: cell-based; conditions: PBMCs; 10-1-0,1-0.01 micromolar
[14] = published data, Clarke et al. 2009; cited from earlier work
[15] = batch CH730/16/8G, solid, external T and light, t = 2 days
[16] = batch CH730/16/8G, solid, external T and light, t = 6 days
[17] = batch CH730/16/8G, solution in CHCl3, RT and light, t = 0
[18] = batch CH730/16/8G, solution in CHCl3, RT and light, t = 1 day
[19] = batch CH730/16/8G, solution in CHCl3, RT and light, t = 5 days
[20] = batch CH730/16/8G, solution in CHCl3, RT and light, t = 7 days
[21] = batch CH730/16/8G, solution in CHCl3, RT and light, t = 11 days
[22] = batch CH730/16/8G, solution in CHCl3, T about 30° C. without light, t = 1 day
[23] = batch CH730/16/8G, solution in CHCl3, external T and light, t = 1 day
[24] = whole blood, 6 hours incubation
[25] = whole blood, 24 hours incubation

solubility in common solvents [1]: not soluble
SMILES: COCCOc1nc(N)c2[nH]c(=O)n(Cc3ccc(C(=O)O)cc3)c2n1 [Acid 7, 4-((6-amino-2-(2-methoxyethoxy)-8-oxo-7H-purin-9(8H)-yl)methyl)benzoic acid]

SMILES: CCCCCCCC/C=C\CCCCCCCC(=O)OCC(COP(=O)(O)OCCNC(=O)c1ccc(Cn2c(=O)[nH]c3c(N)nc(OCCOC)nc32)cc1)OC(=O)CCCCCCC/C=C\CCCCCCCC (stereo not shown) [Compound A, 2-(4-((6-amino-2-(2-methoxyethoxy)-8-oxo-7H-purin-9(8H)-yl)methyl)benzamido)ethyl 2,3-bis(oleoyloxy)propyl phosphate]
stability classification [2]: unstable
stability classification [3]: unstable
stability (in words) ([4]; at room temperature and/or in the presence of light): not a stable compound
HPLC purity ([4]; Test date: Jun. 10, 2009): Purity: 57.5%
HPLC purity ([4]; Test date: Jun. 11, 2009): Purity: 81.4%
HPLC purity ([4]; Test date: May 20, 2009): Purity: 89.6%
HPLC purity ([4]; tested Jun. 10, 2009, Retest date: Jun. 16, 2009): Purity: 44.8%
HPLC purity ([4]; tested Jun. 11, 2009, Retest date: Jun. 18, 2009): Purity: 71.5%
HPLC purity ([4]; tested May 20, 2009, Retest date: Jun. 12, 2009): Purity: 67.2%
HPLC purity ([4]; tested May 20, 2009, Retest date: Jun. 17, 2009): Purity: 58.9%
stability classification [5]: unstable
degradation (in words) ([6]; T>25° C. and in the presence of light): rapid degradation
HPLC % at RRT = 1 (main peak) [6, 15]: 37.6%
HPLC % of impurity at RRT = 1.06 [6, 15]: 9.2%
HPLC % of impurity at RRT = 1.11 [6, 15]: 27.9%
HPLC % of impurity at RRT = 1.26 [6, 15]: 14.8%
HPLC % at RRT = 1 (main peak) [6, 16]: 35.4%
HPLC % of impurity at RRT = 1.06 [6, 16]: 17.8%
HPLC % of impurity at RRT = 1.14 [6, 16]: 7.2%
HPLC % of impurity at RRT = 1.17 [6, 16]: 12.6%
HPLC % of impurity at RRT = 1.28 [6, 16]: 5.5%
HPLC % at RRT = 1 (main peak) [6, 17]: 81.4%
HPLC % of impurity at RRT = 1.11 [6, 17]: 8.6%
HPLC % of impurity at RRT = 1.23 [6, 17]: 4.2%
HPLC % at RRT = 1 (main peak) [6, 18]: 80.9%
HPLC % of impurity at RRT = 1.11 [6, 18]: 8.7%
HPLC % of impurity at RRT = 1.24 [6, 18]: 4.4%
HPLC % at RRT = 1 (main peak) [6, 19]: 79.3%
HPLC % of impurity at RRT = 1.10 [6, 19]: 9.9%
HPLC % of impurity at RRT = 1.24 [6, 19]: 4.2%
HPLC % at RRT = 1 (main peak) [6, 20]: 80.5%
HPLC % of impurity at RRT = 1.11 [6, 20]: 8.7%
HPLC % of impurity at RRT = 1.27 [6, 20]: 3.9%
HPLC % at RRT = 1 (main peak) [6, 21]: 82.0%
HPLC % of impurity at RRT = 1.16 [6, 21]: 6.9%
HPLC % of impurity at RRT = 1.29 [6, 21]: 3.7%
HPLC % at RRT = 1 (main peak) [6, 22]: 80.7%
HPLC % of impurity at RRT = 1.11 [6, 22]: 8.6%
HPLC % of impurity at RRT = 1.27 [6, 22]: 3.8%
HPLC % at RRT = 1 (main peak) [6, 23]: 80.3%
HPLC % of impurity at RRT = 1.11 [6, 23]: 8.0%
HPLC % of impurity at RRT = 1.27 [6, 23]: 3.2%
local side effects [7]: No local side effects
stability classification [8]: unstable
range of IL-6 secretion (human whole blood; whole blood, three donors): 4000 to 8000 pg/mL
ranges of IFN-alpha secreted (human whole blood; whole blood, three donors): 1000 to 2000 pg/mL
IL-12p40 levels (human whole blood; [24]): 8.000 to 12.000 pg/mL
IL-12p40 levels (human whole blood; [25]): 20.000 to 25.000 pg/mL

SMILES: CC(C)Cn1cnc2c(N)nc3ccccc3c21 [Imiquimod, reference compound]
CD40 expression (MFI, in words) (HLA-DR+/CD20+ B cells): increased expression in all three donors
binding to receptors associated with pain-related syndromes (e.g. adenosine and sodium channel) [9]: shown to bind
Range of weight of the rat bladders ([10]; 0.5 ml intravesical instillation (Imiquimod 0.1%, SC12 0.38%) on day 2 and 5, day 12): 0.0814-0.1891 grams
signs of toxicity (in words) ([10]; intravesical instillation on day 2 and 5): No signs of toxicity
Tumor free (% of rats) ([10]; of 14 rats per group, day 12): 35.7%
Tumor free (number of rats) ([10]; of 14 rats per group, day 12): 5
pT2 Tumor (% of rats) ([10]; of 14 rats per group, day 12): 64.3%
pT2 Tumor (number of rats) ([10]; of 14 rats per group, day 12): 9
Imiquimod levels in serum, Mean ± S.D. ([11]; intravesical 0.1%, Day 1, 24 hours, LLOQ 2.5 ng/ml): <LLOQ
accumulation in serum (in words) ([11]; intravesical chronic treatment, 6 days): no accumulation
induction of IL-6 and TNF-alpha secretion (in words) (PBMCs): weak ability to induce the cytokines
CD80 expression in mDCs (MFI, in words) [12]: weak expression of CD80 in donor 1 and 2
induction of DC secreted cytokines (in words) (human whole blood; supernatant from whole blood cell assays): weak inducer
IL-6 secretion (in words) (human whole blood; whole blood, 6 h incubation): low and insignificant amounts of IL-6
IFN-alpha secretion (in words) (human whole blood; [24]): did not induce IFN-alpha secretion
IL-10 production (in words) (human whole blood; [24]): no IL-10 production was seen
IL-12p40 secretion (in words) (human whole blood; [24]): did not induce IL-12p40 secretion
IL-12p40 secretion (in words) (human whole blood; [25]): did not induce IL-12p40
cell numbers (real-time cell analysis, electric conductance) [13]: reduced cell numbers
IL-6 induction (in words) (human PBMCs): only active in inducing IL-6 at the highest concentration

SMILES: CCOCc1nc2c(N)nc3ccccc3c2n1CC(C)(C)O [Resiquimod]
IFN-alpha secreted [14]: < 200 pg/mL

From patent US9180183B2, “Phospholipid drug analogs” (Telormedix SA, priority 2010, dated 2015)
